# Paper PMC11865978, “Cellular Activity of CQWW Nullomer-Derived Peptides” (ACS Omega, 2025)
# What was measured:
# [1] = system: mitochondria, all cell lines including GCGR-NS9FB_B; assay: Mitotracker stain intensity in cell painting assay; type: cell-based, human; settings: compared with Peptide 15 control
# Procedure: Figure S4 – Network analysis (STRING) showing protein interactions resulting from treatment with […]
# 2nd shell) <10. Top ranked Gene Ontology (GO terms) for biological processes is listed (top right) with Log[False Discovery Rate] indicated.
# High Content Phenotypic Screening assays
# Cell lines (glioma stem cell lines and normal foetal neural stem cells) were seeded on laminin (10 µg/mL) coated 384-well plates (Greiner Bio-One, 781091) at 1,000 cells/well and incubated overnight at 37 °C and 5% CO2. Aqueous peptide solutions (10 mM) were further diluted to 1 mM in water containing 10 % glycerol and 0.01 % TX-100. […]
# BSA/PBS. […] The data was then analyzed using a custom CellProfiler software pipeline using the University of Edinburgh high performance computing cluster. Dose response plots were calculated using HC StratomineR (corelifeanalytics.com). Nuclei count data was analyzed separately to generate cell survival metrics (normalized to aqueous glycerol/TX -100 control).
# Dose response curves were fitted and IC50 values calculated using Prism GraphPad (graphpad.com). […]
# Figure S5 – The CellProfiler-derived feature “MedianNucleiIntensityMADIntensityW5”, reading out mitotracker stain intensity observed in cell nuclei after treatment with the Peptide 2 nullomer (blue) and Peptide 15 (control). […]
# [2] = system: Met, ERBB2, CCND1, PTEN, PARP1, GSK3B; assay: RPPA with STRING network analysis; type: cell-based, human; settings: peptide at 3 μM
# Procedure: growth and stemness was further supported by the addition of laminin extracellular matrix (Cultrex 3446-005-01, 4-10 mg/mL) to the growth media and to create pre-coated flasks/384w plates. Cells were cultured in T75 cm2 flasks and passaged as follows: Glioma stem cells generally grow slowly (~60hrs doubling time, excepting GCGR-E57 cells ~24hrs) and lag phase was exacerbated by sparse seeding. Cell confluence is generally ~80 -90% prior to passaging, whereby the culture media was aspirated, the cells washed (PBS) and Accutase solution (Sigma A6964, 1 mL) was added to detach the cells, which were then incubated at 37 °C for <5 minutes. Cells were resuspended in media and centrifuged for 3 minutes at 300 × g. Resuspended cells were typically split 1:5, 1:8 (GCGR-E57 cells) and 1:2, 1:4 for the remainder of cell lines, depending on requirements . Cells were passaged every 4-7 days to maintain health and growth and discarded after 3 months, whereupon a fresh batch of cells […]
# Culture media was aspirated and cells washed with wash media. […] A 10 μL sample of the cell suspension was pipetted onto the reading surface of a DeNovix CellDrop automated cell counter and the reading was used to dilute the suspension in complete media to 250,000 cells/mL. […]
# The cell pellet preparation was performed on ice. […] The supernatant was aspirated, and the pellets were stored at -80 °C until ready for RPPA. […]
substance,measurement,setting,value
H-RRRRRCQWW-NH2 [Peptide 2],mitotracker stain intensity in cell nuclei (MedianNucleiIntensityMADIntensityW5),[1],reduce mitotracker intensity in a dose dependent manner
same,mitotracker stain intensity in cells (MedianCellsIntensityMeanIntensityW5),[1],reduce mitotracker intensity in a dose dependent manner
same,"proteins with decreased expression (RPPA, STRING network analysis)",[2],"PTEN, PARP1, GSK3B"
same,"proteins with increased expression (RPPA, STRING network analysis)",[2],"Met, ERBB2, CCND1"
